Measurements: the supplement of paper PMC10307832

Assays:
Experiment in all cases: relative viability (nuclei count vs DMSO), 5 days (fraction); higher = more cells survive
Everolimus + Lapatinib = compound: CO[C@H]1C[C@@H]2CC[C@@H](C)[C@@](O)(O2)C(=O)C(=O)N2CCCC[C@H]2C(=O)O[C@H]([C@H](C)C[C@@H]2CC[C@@H](OCCO)[C@H](OC)C2)CC(=O)[C@H](C)/C=C(\C)[C@@H](O)[C@@H](OC)C(=O)[C@H](C)C[C@H](C)/C=C/C=C/C=C/1C [Everolimus] + CS(=O)(=O)CCNCc1ccc(-c2ccc3ncnc(Nc4ccc(OCc5cccc(F)c5)c(Cl)c4)c3c2)o1 [Lapatinib] (partner 2 µM)
Summary of the method: (§1)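 Values are medians from duplicate plates. Each reflects relative viability, defined as the nuclei count of treated wells over that of vehicle wells. Lung cancer cell lines in 1536-well plates were pin-tool dosed one day after seeding with one drug alone or with a fixed anchor-drug dose plus five library-drug doses (not always all listed) in √10 steps, then fixed, stained and imaged at 4× after 5 days.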

Everolimus + Crizotinib = compound: CO[C@H]1C[C@@H]2CC[C@@H](C)[C@@](O)(O2)C(=O)C(=O)N2CCCC[C@H]2C(=O)O[C@H]([C@H](C)C[C@@H]2CC[C@@H](OCCO)[C@H](OC)C2)CC(=O)[C@H](C)/C=C(\C)[C@@H](O)[C@@H](OC)C(=O)[C@H](C)C[C@H](C)/C=C/C=C/C=C/1C [Everolimus] + C[C@@H](Oc1cc(-c2cnn(C3CCNCC3)c2)cnc1N)c1c(Cl)ccc(F)c1Cl [Crizotinib] (partner 1 µM)
Summary of the method: as §1

Everolimus + Dasatinib = compound: CO[C@H]1C[C@@H]2CC[C@@H](C)[C@@](O)(O2)C(=O)C(=O)N2CCCC[C@H]2C(=O)O[C@H]([C@H](C)C[C@@H]2CC[C@@H](OCCO)[C@H](OC)C2)CC(=O)[C@H](C)/C=C(\C)[C@@H](O)[C@@H](OC)C(=O)[C@H](C)C[C@H](C)/C=C/C=C/C=C/1C [Everolimus] + Cc1nc(Nc2ncc(C(=O)Nc3c(C)cccc3Cl)s2)cc(N2CCN(CCO)CC2)n1 [Dasatinib] (partner 0.075 µM)
Summary of the method: as §1

Everolimus + Pemetrexed = compound: CO[C@H]1C[C@@H]2CC[C@@H](C)[C@@](O)(O2)C(=O)C(=O)N2CCCC[C@H]2C(=O)O[C@H]([C@H](C)C[C@@H]2CC[C@@H](OCCO)[C@H](OC)C2)CC(=O)[C@H](C)/C=C(\C)[C@@H](O)[C@@H](OC)C(=O)[C@H](C)C[C@H](C)/C=C/C=C/C=C/1C [Everolimus] + Nc1nc2[nH]cc(CCc3ccc(C(=O)N[C@@H](CCC(=O)O)C(=O)O)cc3)c2c(=O)[nH]1 [Pemetrexed] (partner 0.2 µM)
Summary of the method: as §1

Row | Cell Line | relative viability (Everolimus + Lapatinib; first compound 0.01 µM) | relative viability (Everolimus + Lapatinib; first compound 0.03162 µM) | relative viability (Everolimus + Lapatinib; first compound 0.1 µM) | relative viability (Everolimus + Lapatinib; first compound 0.3162 µM) | relative viability (Everolimus + Lapatinib; first compound 1 µM) | relative viability (Everolimus + Crizotinib; first compound 0.01 µM) | relative viability (Everolimus + Crizotinib; first compound 0.03162 µM) | relative viability (Everolimus + Crizotinib; first compound 0.1 µM) | relative viability (Everolimus + Crizotinib; first compound 0.3162 µM) | relative viability (Everolimus + Crizotinib; first compound 1 µM) | relative viability (Everolimus + Dasatinib; first compound 0.01 µM) | relative viability (Everolimus + Dasatinib; first compound 0.03162 µM) | relative viability (Everolimus + Dasatinib; first compound 0.1 µM) | relative viability (Everolimus + Dasatinib; first compound 0.3162 µM) | relative viability (Everolimus + Dasatinib; first compound 1 µM) | relative viability (Everolimus + Pemetrexed; first compound 0.01 µM) | relative viability (Everolimus + Pemetrexed; first compound 0.03162 µM) | relative viability (Everolimus + Pemetrexed; first compound 0.1 µM) | relative viability (Everolimus + Pemetrexed; first compound 0.3162 µM) | relative viability (Everolimus + Pemetrexed; first compound 1 µM)
1 | NCI-H2405 | 0.84 | 0.903 | 0.712 | 0.872 | 0.796 | 0.792 | 0.693 | 0.683 | 0.696 | 0.659 | 0.207 | 0.211 | 0.183 | 0.182 | 0.209 | 0.796 | 0.825 | 0.671 | 0.726 | 0.825
2 | LXF-289 | 0.908 | 0.951 | 0.889 | 0.889 | 0.899 | 0.885 | 0.978 | 0.904 | 0.88 | 0.888 | 0.291 | 0.199 | 0.151 | 0.197 | 0.178 | 1.09 | 1.07 | 0.823 | 1.12 | 1.02
3 | CAL-12T | 0.483 | 0.426 | 0.33 | 0.463 | 0.433 | 0.432 | 0.569 | 0.233 | 0.401 | 0.265 | 0.274 | 0.261 | 0.194 | 0.289 | 0.189 | 0.572 | 0.58 | 0.664 | 0.653 | 0.627
4 | COR-L23 | 0.744 | 0.829 | 0.804 | 1.01 | 0.918 | 0.515 | 0.597 | 0.623 | 0.666 | 0.635 | 0.429 | 0.498 | 0.432 | 0.497 | 0.485 | 0.196 | 0.194 | 0.189 | 0.193 | 0.186
5 | NCI-H1755 | 0.866 | 0.964 | 0.769 | 0.876 | 0.77 | 0.777 | 0.715 | 0.679 | 0.6 | 0.554 | 0.421 | 0.232 | 0.37 | 0.419 | 0.318 | 0.468 | 0.484 | 0.512 | 0.438 | 0.448
6 | NCI-H1437 | 0.642 | 0.55 | 0.464 | 0.508 | 0.417 | 0.969 | 0.903 | 0.782 | 0.873 | 0.648 | 0.243 | 0.267 | 0.21 | 0.209 | 0.317 | 0.296 | 0.307 | 0.294 | 0.29 | 0.251
7 | NCI-H2085 | 0.489 | 0.364 | 0.434 | 0.506 | 0.486 | 0.775 | 0.719 | 0.64 | 0.655 | 0.496 | 0.237 | 0.232 | 0.254 | 0.215 | 0.234 | 0.655 | 0.652 | 0.493 | 0.624 | 0.63
8 | H3255 | 0.249 | 0.238 | 0.266 | 0.212 | 0.225 | 0.575 | 0.505 | 0.498 | 0.555 | 0.527 | 0.35 | 0.266 | 0.332 | 0.239 | 0.335 | 0.459 | 0.458 | 0.478 | 0.449 | 0.455
9 | NCI-H650 | 0.652 |  | 0.716 | 0.598 | 0.479 | 0.672 |  | 0.582 | 0.588 | 0.428 | 0.363 |  | 0.357 | 0.361 | 0.307 | 0.645 | 0.606 | 0.626 | 0.516 | 0.591
10 | LOU-NH91 | 0.553 | 0.56 | 0.58 | 0.615 | 0.546 | 0.664 | 0.695 | 0.627 | 0.573 | 0.58 | 0.486 | 0.467 | 0.476 | 0.434 | 0.449 | 0.477 | 0.467 | 0.394 | 0.418 | 0.485
11 | NCI-H1650 | 0.615 | 0.707 | 0.645 | 0.742 | 0.489 | 0.922 | 1.06 | 0.918 | 1 | 0.719 | 0.288 | 0.225 | 0.263 | 0.315 | 0.295 | 0.451 | 0.359 | 0.325 | 0.442 | 0.414
12 | NCI-H3122 | 1.09 | 1.16 | 1.06 | 1.07 | 0.951 | 0.219 | 0.246 | 0.238 | 0.194 | 0.192 | 0.584 | 0.0535 | 0.0826 | 0.0717 | 0.112 | 0.198 | 0.232 | 0.228 | 0.208 | 0.201
13 | PC-3 [JPC-3] | 0.372 | 0.382 | 0.346 | 0.359 | 0.412 | 1.02 | 0.992 | 0.911 | 0.96 | 1.02 | 0.93 | 0.77 | 0.797 | 0.669 | 0.675 | 0.988 | 0.9 | 0.72 |  | 1.07
14 | NCI-H1651 | 0.537 | 0.391 | 0.497 | 0.533 | 0.521 | 0.846 | 0.786 | 0.735 | 0.708 | 0.566 | 0.297 | 0.335 | 0.259 | 0.24 | 0.405 | 0.398 | 0.386 | 0.423 | 0.41 | 0.433
15 | NCI-H2087 | 1.2 | 1.05 | 0.824 | 0.848 | 1.05 | 1.18 | 1.01 | 0.783 | 0.885 | 0.922 | 0.748 | 0.648 | 0.695 | 0.786 | 0.667 | 0.587 | 0.636 | 0.612 | 0.608 | 0.626
